Source: article PMC5423977, “Safety, pharmacokinetics, and pharmacodynamics of BMS-986142, a novel reversible BTK inhibitor, in healthy participants” (European Journal of Clinical Pharmacology, 2017)
Where two headings read alike, the source gives them in different places.

Legend:
[1] = Plasma pharmacokinetics of BMS-986142, MAD; format: in vivo, human; conditions: for AI_AUC geometric mean (%CV): MAD; for AI_AUC geometric mean (%CV) / AUC / Cmax / concentration at 14 day / Tmax / half-life: n = 6; for AUC / Cmax / concentration at 14 day / Tmax / half-life: human, plasma, oral; for AUC: read-out: AUC(TAU) geometric mean (%CV); for Cmax: read-out: Cmax geometric mean (%CV); for concentration at 14 day: read-out: Cmin geometric mean (%CV); for Tmax: read-out: Tmax median (min, max); for half-life: read-out: T1/2 mean (SD) (converted)
Experimental: Eligible participants were confined to the clinical facility (WCCT Global, LLC, Cypress, CA) the day before dosing (day −1) and randomized to receive SAD or MAD treatment under fasting conditions for 10 h. In the SAD group, eight healthy non-Japanese participants were assigned to each of up to six sequential dose panels (single oral doses of 5, 15, 50, 100, 300, and 900 mg BMS-986142) or placebo. Within each dose panel, participants were randomized in a 3:1 ratio to receive BMS-986142 (n = 6) or placebo (n = 2). In the MAD group, eight healthy non-Japanese participants were assigned to each of four sequential dose panels (daily oral doses of 25, 75, 200, and 350 mg BMS-986142) or placebo. Within each dose panel, participants were randomized in a 3:1 ratio to receive once-daily (QD) doses of BMS-986142 or placebo from day 1 to day 14 (Online Resource 1). Escalation to the next dose level in SAD and MAD was conducted after safety assessment had been completed and the treatment was considered safe and well tolerated. Additionally, dose levels in MAD were selected not to exceed the steady-state exposure of BMS-986142 (AUC: 22,920 ng h/mL) at NOAEL in rats obtained from a 1-month GLP toxicology study.
Blood samples for the measurement of BMS-986142 were collected up to 168 h after dosing of BMS-986142 on day 1 for participants in SAD. In MAD, blood samples were collected up to 24 h on day 1 and up to 120 h on day 14 (the last day of treatment). Blood samples for the measurement of MTX were collected up to 48 h after dosing of MTX on days 1 and 8.
Plasma samples were analyzed for BMS-986142 levels with a validated method using liquid chromatography tandem mass spectrometry (LC-MS/MS) detection. The analyte was extracted from 50 μL of plasma using a liquid–liquid extraction method. Methyl tert-butyl ether was used as the extraction solvent. The lower limit of quantification (LLOQ) was 1.00 ng/mL in plasma. Plasma samples were analyzed for methotrexate levels using LC-MS/MS detection. Analytes were isolated from 50 μL plasma through solid phase extraction using Waters Oasis MAX, 10-mg, 96-well SPE plates. The final extract was analyzed using LC-MS/MS detection. LLOQ was 1.00 ng/mL in plasma. Detailed methodology quantitating the concentration level of BMS-986142 and MTX is provided in Online Resource 10.
Individual subject pharmacokinetic parameters for BMS-986142 and MTX were derived by a non-compartmental method using validated PK software (WinNonLin version 6.3; Pharsight Corporation, Mountain View, CA, USA). The following PK parameters for BMS-986142 and MTX were derived from plasma concentration versus time data: maximum observed plasma concentration (Cmax); minimum observed plasma concentration (Cmin); time to maximum observed plasma concentration (Tmax); area under the plasma concentration-time curve from time zero to the time of the last quantifiable concentration (AUC(0-T)), from time zero extrapolated to infinite time (AUC(inf)), and in one dosing interval (AUC(TAU)); terminal plasma half-life (T1/2); and AUC accumulation index (AI_AUC). AI_AUC was calculated to divide AUC(TAU) on day 14 by AUC(TAU) on day 1.
Summary statistics were tabulated for all PK parameters by treatment and study days. Geometric mean (Gmean) and coefficient of variation (CV) are presented for Cmax, AUC(0-T), AUC(inf), AI_AUC, Cmin, and AUC(TAU); arithmetic mean and standard deviation (SD) are presented for T1/2; and median and range are presented for Tmax. Dose proportionality was assessed using the previously described power model. Briefly, the simple linear regression was applied to the natural log of the PK parameters on the natural log of dose using the following equation (Eq. 1).1 ElogPKParameterDose=α+β∗logDose.
A slope (β) equal to 1 would indicate perfect dose proportionality. For each PK parameter (Cmax, AUC(0-T), AUC(TAU), and AUC(inf)), point estimates and 90% CI of the slopes were calculated.

[2] = rats, 1-month GLP toxicology study; cited from earlier work
[3] = both sexes, MAD day 14, 25 mg QD

For `Cc1c(-c2c(F)cc(C(N)=O)c3[nH]c4c(c23)CC[C@H](C(C)(C)O)C4)cccc1-n1c(=O)c2cccc(F)c2n(C)c1=O` [BMS-986142, 6-fluoro-5-(R)-(3-(S)-(8-fluoro-1-methyl-2,4-dioxo-1,2-dihydroquinazolin-3(4H)-yl)-2-methylphenyl)-2-(S)-(2-hydroxypropan-2-yl)-2,3,4,9-tetrahydro-1H-carbazole-8-carboxamide], the “Accumulation (accumulation index for AUC)” value ([1]; MAD 25-350 mg QD) was “minimal to modest accumulation”, the “AI_AUC geometric mean (%CV)” value ([1]; AUC(TAU) day 14 / day 1, 25 mg QD) was 1.57 (22) and the “AI_AUC geometric mean (%CV)” value ([1]; AUC(TAU) day 14 / day 1, 75 mg QD) was 1.23 (31). The “AI_AUC geometric mean (%CV)” value ([1]; AUC(TAU) day 14 / day 1, 200 mg QD) was 1.23 (40), the “AI_AUC geometric mean (%CV)” value ([1]; AUC(TAU) day 14 / day 1, 350 mg QD) was 0.984 (32) and the AUC [1, 3] was 539 ng·h/mL. For the same compound, the Cmax [1, 3] was 56 ng/mL, the concentration at 14 day [1, 3] was 7.85 ng/mL and the Tmax [1, 3] was 2 h. For the same compound, the half-life ([1]; MAD day 14, 25 mg QD) was 10.9 h, the AUC ([1]; MAD day 14, 75 mg QD) was 2470 ng·h/mL and the Cmax ([1]; MAD day 14, 75 mg QD) was 281 ng/mL. For the same compound, the concentration at 14 day ([1]; MAD day 14, 75 mg QD) was 27.9 ng/mL, the half-life ([1]; MAD day 14, 75 mg QD) was 10.7 h and the Tmax ([1]; MAD day 14, 75 mg QD) was 2 h. The AUC ([1]; MAD day 14, 200 mg QD) was 5530 ng·h/mL, the Cmax ([1]; MAD day 14, 200 mg QD) was 592 ng/mL and the concentration at 14 day ([1]; MAD day 14, 200 mg QD) was 67.6 ng/mL. The half-life ([1]; MAD day 14, 200 mg QD) was 11 h, the Tmax ([1]; MAD day 14, 200 mg QD) was 2 h and the AUC ([1]; MAD day 14, 350 mg QD) was 10700 ng·h/mL. It also gave a Cmax ([1]; MAD day 14, 350 mg QD) of 1020 ng/mL, a concentration at 14 day ([1]; MAD day 14, 350 mg QD) of 166 ng/mL and a half-life ([1]; MAD day 14, 350 mg QD) of 10.2 h. For the same compound, the Tmax ([1]; MAD day 14, 350 mg QD) was 1.5 h and the “Steady-state exposure (AUC) at NOAEL” value [2] was 22,920 ng h/mL.
